# EPA's ToxValDB 9.5
# Test system: Rattus norvegicus
# Conditions: oral
# [1] = chronic, duration: 17 weeks, gavage, F, Ash/CSE, Body Weight Changes: decrease
# [2] = chronic, duration: 17 weeks, gavage, M, Ash/CSE, Body Weight Changes: decrease
# [3] = subchronic, gavage, M, Sprague-Dawley, Clinical Observation: Salivation + Body Weight Changes: Body weight gain decrease + Food Consumption: decrease + Water Consumption: increase…
# [4] = subchronic, gavage, M, Sprague-Dawley, Clinical Observation: Salivation (transient) + Functional Observational Battery: Salivation (transient)Defecation increase(transient) + …
# [5] = subchronic, gavage, M, Sprague-Dawley, Body Weight Changes: decrease, Gain decrease + Food Consumption: decrease + Hematology: RBC decrease, Hgb decrease, Hct decrease, Ret …
compound,measurement,setting,value
O=C(O)CCCC/C=C(\c1ccccc1)c1cccnc1 [Isbogrel],NOAEL,"subchronic, gavage, M/F, CD, Clinical Observation: Salivation + Hematology: RBC decrease, HCT decrease, HGB decrease + Blood Chemistry: Bil increase, GLUC decrease, TP …",< 100 mg/kg-day
CC(C)CCO [Isopentyl alcohol],NOAEL,[1],1000 mg/kg-day
same,NOEL,[1],1000 mg/kg-day
same,NOAEL,[2],500 mg/kg-day
same,NOEL,[2],500 mg/kg-day
CC1(C)CC(N)CC(C)(CN)C1 (stereo unspecified) [Isophorone diamine],NOAEL,"subchronic, duration: 90 days, drinking water, M/F, Wistar, Body Weight Changes: Weight gain decrease + Food Consumption: decrease + Water Consumption: decrease + Absolute Organ Weight: Kidney …",60 mg/kg-day
CC(=O)N1CCN(c2ccc(OC[C@@H]3CO[C@@](Cn4ccnc4)(c4ccc(Cl)cc4Cl)O3)cc2)CC1 [Ketoconazole],NOEL,"short-term, duration: 28 days, gavage, M/F, Sprague-Dawley, Body Weight Changes: decrease + Blood Chemistry: ALT increase, Estrus cycle increase, T3 decrease, T4 decrease, TSH increase, Testosterone …",< 6.25 mg/kg-day
CC1(C)Oc2ccc(C#N)cc2[C@@H](N2CCCC2=O)[C@@H]1O [Levcromakalim],NOAEL,"chronic, duration: 91 days, diet, M/F, CD, Body Weight Changes: increase.3 + Food Consumption: increase.3 + Water Consumption: increase + Urinalysis: Volume increase Osmolality …",0.03 mg/kg-day
CCCCCC1C(=O)CCC1CC(=O)OC (stereo unspecified) [Methyl dihydrojasmonate],NOAEL,[3],100 mg/kg-day
same,NOEL,[3],100 mg/kg-day
CC1CCCCC1 [Methylcyclohexane],LOEL,[4],250 mg/kg-day
same,NOEL,[4],62.5 mg/kg-day
CC(C)CCCCCOC(=O)C[S][Sn]([CH3])([S]CC(=O)OCCCCCC(C)C)[S]CC(=O)OCCCCCC(C)C [Methyltin tris(isooctyl mercaptoacetate)],NOAEL,"subchronic, duration: 90 days, diet, M, Wistar, Blood Chemistry: BUN increase + Relative Organ Weight: Thymus increase, Kidney increase + Histopathology: Kidney: Dilatation, tubule, cystic…",48 mg/kg-day
CCC(C)=NO[Si](C)(ON=C(C)CC)ON=C(C)CC [Methyltri(2-butanoneoximyl)silane],NOAEL,"short-term, duration: 28 days, gavage, M, Wistar, Functional Observational Battery: Rearing decrease, Grip strength(fore and hind limb) decrease, Mean body temperature decrease + Body Weight…",10 mg/kg-day
"CC(CN1CCOCC1)OCCN1CCOCC1 (stereo unspecified) [Morpholine, 4-[2-[1-methyl-2-(4-morpholinyl)ethoxy]ethyl]-]",NOEL,"short-term, duration: 28 days, gavage, M/F, Clinical Observation: Salivation Ptosis Reddish pinna Swelling of pinna + Body Weight Changes: Body weight gain decrease + Food Consumption…",< 8 mg/kg-day
CCn1cc(C(=O)O)c(=O)c2ccc(C)nc21 [Nalidixic acid],NOEL,"subchronic, duration: 13 weeks, diet, M/F, Fischer 344, Deaths + Body Weight Changes: decrease + Food Consumption: decrease + Absolute Organ Weight: Liver increase + Relative Organ Weight: Liver …",96 mg/kg-day
NC(=O)N/N=C/c1ccc([N+](=O)[O-])o1 [Nitrofurazone],NOEL,"subchronic, duration: 13 weeks, diet, M/F, Fischer 344, Body Weight Changes: decrease + Food Consumption: decrease + Absolute Organ Weight: Liver increase + Relative Organ Weight: Liver increase…",< 14.4 mg/kg-day
CCCCCCCCC [Nonane],NOAEL,"subchronic, duration: 90 days, gavage, F, Fischer 344, Absolute Organ Weight: Liver increase, Lung increase, Adrenal increase, Spleen decrease, Ovary decrease + Histopathology: Alimentary tract: …",100 mg/kg-day
"ClCCCCCCCCCl [Octane, 1,8-dichloro-]",NOEL,"short-term, duration: 28 days, gavage, M/F, Sprague-Dawley, Deaths + Clinical Observation: Salivation + Functional Observational Battery: Grip strength (forelimb) decrease, Grip strength (hindlimb) …",< 40 mg/kg-day
"FC(F)(F)C1(F)C(F)(F)C(F)(F)C(F)(F)C(F)(F)C1(F)C(F)(F)F (stereo unspecified) [Perfluoro-1,2-dimethylcyclohexane]",NOEL,"subchronic, duration: 42 days, gavage, M, CD(SD), Hematology: HGB decrease, HCT decrease + Histopathology: Liver-Hypertrophy, hepatocyte, central",300 mg/kg-day
O=C(O)C(F)(F)C(F)(F)C(F)(F)C(F)(F)C(F)(F)C(F)(F)C(F)(F)C(F)(F)C(F)(F)C(F)(F)C(F)(F)C(F)(F)C(F)(F)C(F)(F)C(F)(F)C(F)(F)C(F)(F)F [Perfluorooctadecanoic acid],LOEL,[5],200 mg/kg-day
same,NOEL,[5],40 mg/kg-day
CC(CN1c2ccccc2Sc2ccccc21)N(C)C.Cl (stereo unspecified) [Promethazine hydrochloride],NOEL,"subchronic, duration: 13 weeks, gavage, M/F, Fischer 344, Deaths + Clinical Observation: Hunched posture Labored respiration Abnormal respiratory sounds + Body Weight Changes: decrease + Absolute …",3.7 mg/kg-day
CC(=O)/C=C/C=C(\C)CCC=C(C)C [Pseudoionone],NOAEL,"short-term, duration: 28 days, gavage, M/F, Wistar Han, Clinical Observation: Salivation + Body Weight Changes: Weight gain decrease + Hematology: RBC increase, HCT increase, PLT increase, APTT …",50 mg/kg-day
Br.CN1[C@@H]2CC(OC(=O)[C@H](CO)c3ccccc3)C[C@H]1[C@@H]1O[C@@H]12.O.O.O (stereo partly specified) [Scopolamine hydrobromide trihydrate],NOEL,"chronic, duration: 14 weeks, gavage, M/F, Fischer 344, Deaths + Clinical Observation: Pupillary dilation Reddening of eyes Hypoactivity + Body Weight Changes: decrease + Hematology: Hgb increase…",< 15 mg/kg-day
"CCCCCCC[CH2][Sn]([Cl])([Cl])[Cl] [Stannane, trichlorooctyl-]",NOAEL,"subchronic, duration: 13 weeks, diet, M/F, Wistar, Blood Chemistry: ALP increase + Absolute Organ Weight: Thymus decrease + Relative Organ Weight: Thymus decrease + Histopathology: Thymus- …",9.6 mg/kg-day
same,NOAEL,"subchronic, duration: 13 weeks, diet, M/F, Wistar, Body Weight Changes: Mean body weight decrease + Food Consumption: decrease + Urinalysis: SG decrease + Hematology: HGB decrease, HCT …",< 2.88 mg/kg-day
CC(C)(c1cc(Br)c(OCCO)c(Br)c1)c1cc(Br)c(OCCO)c(Br)c1 [Tetrabromobisphenol A bis(2-hydroxyethyl) ether],NOEL,"subchronic, gavage, M, Sprague-Dawley, Clinical Observation: Soft stool R + Hematology: Plt increase + Blood Chemistry: BUN increase + Necropsy: Cecum-Distention",40 mg/kg-day
CCCC[N+](CCCC)(CCCC)CCCC.[Br-] [Tetrabutylammonium bromide],NOEL,"subchronic, gavage, M/F, Sprague-Dawley, Deaths + Clinical Observation: Reddish urine + Body Weight Changes: Gain decrease + Food Consumption: increase + Urinalysis: Light brown …",60 mg/kg-day
O=C1OC(=O)c2c(Cl)c(Cl)c(Cl)c(Cl)c21 [Tetrachlorophthalic anhydride],NOEL,"subchronic, gavage, M/F, Fischer 344, Deaths + Body Weight Changes: decrease + Blood Chemistry: gamma-GTP increase, Glu decrease + Absolute Organ Weight: Spleen decrease, Right …",< 94 mg/kg-day
c1ccc2c(c1)CCCC2 [Tetralin],NOAEL,"short-term, duration: 28 days, gavage, M/F, Wistar, Clinical Observation: Squatting position Closed eyes Reduced activity LethargyTonic convulsion Absence of auditory startle reflex + Body …",15 mg/kg-day
Cn1c(=O)c2[nH]cnc2n(C)c1=O [Theophylline],NOEL,"chronic, duration: 14 weeks, diet, F, Fischer 344, Absolute Organ Weight: Right kidney increase, Lung increase + Relative Organ Weight: Right kidney increase, Lungs increase + Histopathology…",< 75 mg/kg-day
same,NOEL,"chronic, duration: 14 weeks, diet, M/F, Fischer 344, Absolute Organ Weight: Right kidney increase, Lung increase + Relative Organ Weight: Right kidney increase, Lungs increase + Histopathology…",< 78 mg/kg-day
same,NOEL,"chronic, duration: 14 weeks, gavage, M/F, Fischer 344, Deaths + Absolute Organ Weight: Liver increase, Thymus decrease + Relative Organ Weight: Right kidney increase, Liver increase, Uterus …",< 37.5 mg/kg-day
C=CCN(CC=C)CC=C [Triallylamine],NOEL,"short-term, duration: 28 days, gavage, M/F, Sprague-Dawley, Clinical Observation: Locomotor activity decrease, Salivation + Functional Observational Battery: Hind limb grip strength decrease + Body …",6 mg/kg-day
Nc1nc(N)c2nc(-c3ccccc3)c(N)nc2n1 [Triamterene],NOEL,"subchronic, duration: 13 weeks, diet, M/F, Fischer 344, Deaths + Body Weight Changes: decrease + Food Consumption: decrease + Histopathology: Kidney-Tubule degeneration Kidney-Cast Kidney-Tubule …",14.4 mg/kg-day
OCCOCCOCCO [Triethylene glycol],NOEL,"subchronic, duration: 13 weeks, diet, M/F, Fischer 344, Body Weight Changes: Mean body weight decrease, Body weight gain decrease + Urinalysis: Urinalysis', 'Volume increase, pH decrease + …",1920 mg/kg-day
CO[Si](C)(OC)OC [Trimethoxymethylsilane],NOAEL,"short-term, duration: 28 days, gavage, M, Sprague-Dawley, Clinical Observation: Inactivity Salivation + Body Weight Changes: Body weight gain decrease + Food Consumption: decrease + Hematology: PT …",50 mg/kg-day
CC(C)(C)OOC(=O)c1ccccc1 [tert-Butyl perbenzoate],NOEL,"subchronic, gavage, M/F, Fischer 344, Deaths + Body Weight Changes: decrease + Food Consumption: decrease + Absolute Organ Weight: Spleen decrease, Forestomach increase>60 …",< 30 mg/kg-day
CC(C)(C)c1cc(O)ccc1O [tert-Butylhydroquinone],NOEL,"subchronic, duration: 13 weeks, diet, F, Fischer 344, Clinical Observation: Hair discoloration + Body Weight Changes: decrease + Food Consumption: decrease + Blood Chemistry: Bile acid increase…",200 mg/kg-day
same,NOEL,"subchronic, duration: 13 weeks, diet, M/F, Fischer 344, Clinical Observation: Hair discoloration + Body Weight Changes: decrease + Food Consumption: decrease + Blood Chemistry: Bile acid increase…",< 240 mg/kg-day
